Reference: article PMC8957602 (Cancer chemotherapy and pharmacology, 2022)
Where “and” joins values, the source holds several entries; their conditions need not be identical. Equal values may be shown once. Read-outs that look alike come from different tables or passages of the source.

Key:
[1] = assay type: in vivo, human; settings: despite increased exposure with acid reducer co-treatment
[2] = ref [11], cited from earlier work
[3] = adults with FLT3 mutant AML, ref [26], cited from earlier work
[4] = described as weak acid drug; cited from earlier work
[5] = system: human cytochrome CYP3A enzyme family; settings: in vitro; ref unpublished in vitro data; cited from earlier work
[6] = ref [18], cited from earlier work
[7] = for AUC(0-t) / clearance: human, serum, oral; for AUC(0-t): 170 mg/m2, Steady state AUC0–24h, after 170 mg/m^2; for clearance: Mean clearance
CYP3A4 = settings: ref [31]; cited from earlier work
[8] = before including any covariates
[9] = before inclusion of significant covariates
[10] = final model with covariates, Estimate (RSE%)
[11] = final model, standard deviation, Estimate (RSE%)
[12] = standard deviation, 500 bootstrap replicates

Structure (SMILES): CC1(COc2ccc3c(c2)ncn3-c2ccc3cccc(N4CCC(N)CC4)c3n2)COC1 [crenolanib]
- Tolerability of therapy [1]: well-tolerated
- Terminal half-life ([2]; adults with solid tumors, 100–340 mg once daily, similar across all dose levels, [15]): 14 ± 4.2 h
- Mean (CV%) steady state AUC0–72h ([2]; adults, 280 mg once daily (approx. 168 mg/m^2)): 25,928 (92%) h·nM
- Tolerability ([2]; adults, 100–340 mg once daily, [15]): well tolerated
- Mean clearance ([3]; similar between day 1 and day 15): ~ 60 L/h
- Drug accumulation after repeated doses [3]: minimal drug accumulation
- Terminal half-life [3]: 6.8 h
- pKa [4]: ~ 9.8
- Metabolizing enzyme [5]: primarily metabolized by human cytochrome CYP3A enzyme family
- Maximum tolerated dosage ([6]; oral once daily): 170 mg/m^2/d
- Association of higher AUC with toxicities [6]: not associated with more frequent or severe toxicities
- AR coefficient on V1/F βAR-V, non-parametric bootstraps mean ([7]; 500 bootstrap replicates): −0.477
- Absorption lag time Tlag, non-parametric bootstraps mean ([7]; 500 bootstrap replicates): 0.547 h
- Absorption rate constant ka, non-parametric bootstraps mean ([7]; 500 bootstrap replicates): 0.192 h⁻¹
- Age coefficient on ka βAge, non-parametric bootstraps mean ([7]; 500 bootstrap replicates): −0.0403
- Central clearance CL/F, non-parametric bootstraps mean ([7]; 500 bootstrap replicates): 42.0 L/h
- Central volume V1/F, non-parametric bootstraps mean ([7]; 500 bootstrap replicates): 54.0 L
- Peripheral volume V2/F, non-parametric bootstraps mean ([7]; 500 bootstrap replicates): 194 L
- Residual proportional error, non-parametric bootstraps mean ([7]; 500 bootstrap replicates): 0.306
- CL/F population estimate [7, 8]: 20.4 L/h
- Q/F population estimate [7, 8]: 4.47 L/h
- Tlag population estimate [7, 8]: 0.59 h
- V1/F population estimate [7, 8]: 34.6 L
- V2/F population estimate [7, 8]: 316 L
- ka population estimate [7, 8]: 0.13 h⁻¹
- Inter-occasion variability of CL/F [7, 9]: 0.568
- Inter-occasion variability of V1/F [7, 9]: 0.956
- Absorption lag time Tlag, population estimate [7, 10]: 0.525 (14.4) h
- Absorption rate constant ka, population estimate [7, 10]: 0.191 (10.4) /h
- Peripheral volume V2/F, population estimate ([7]; final model, Estimate (RSE%)): 412 (86.7) L
- Residual proportional error ([7]; final model, Estimate (RSE%)): 0.304 (4.44)
- AR coefficient on V1/F βAR-V ([7]; final model, acid reducer concomitant treatment, Estimate (RSE%)): −0.516 (42.3)
- Age coefficient on ka βAge ([7]; final model, exponential model, Estimate (RSE%)): −0.0404 (20.5)
- Inter-occasion variability (IOV) of absorption lag time Tlag [7, 11]: 0.645 (18.3)
- Inter-patient variability (IIV) of absorption lag time Tlag [7, 11]: 0.524 (27.7)
- Inter-patient variability (IIV) of peripheral clearance Q/F [7, 11]: 0.536 (20.2)
- Central volume V1/F, population estimate ([7]; final model, typical patient, no acid reducer, Estimate (RSE%)): 54.3 L and 54.3 (18.4) L
- Lower V1/F in patients receiving concomitant acid reducers ([7]; histamine H2 antagonists or proton pump inhibitors, p=0.018): ~1.7 fold
- AUC(0-t) ([7]; mean): 20.7 µM·h
- AUC(0-t) ([7]; range): 9.48 to 68.5 µM·h
- clearance ([7]; all patients): 642 mL/min
- clearance ([7]; with acid reducers): 435 mL/min
- clearance ([7]; without acid reducers): 980 mL/min
- Accumulation at steady state ([7]; in vivo): minimal accumulation
- IIV of absorption lag time Tlag, non-parametric bootstraps mean [7, 12]: 0.496
- IIV of absorption rate constant ka, non-parametric bootstraps mean [7, 12]: 0.091
- IIV of central volume V1/F, non-parametric bootstraps mean [7, 12]: 0.182
- IOV of absorption lag time Tlag, non-parametric bootstraps mean [7, 12]: 0.591
- IOV of central volume V1/F, non-parametric bootstraps mean [7, 12]: 0.860

Structure (SMILES): COc1ccc2[nH]c([S+]([O-])Cc3ncc(C)c(OC)c3C)nc2c1 (stereo not shown) [omeprazole]
- CYP3A4 inhibition (CYP3A4): weak CYP3A4 inhibitors

Structure (SMILES): COc1ccnc(C[S+]([O-])c2nc3ccc(OC(F)F)cc3[nH]2)c1OC (stereo not shown) [pantoprazole]
- CYP3A4 inhibition (CYP3A4): weak CYP3A4 inhibitors

Structure (SMILES): CNC(=C[N+](=O)[O-])NCCSCc1ccc(CN(C)C)o1 [ranitidine]
- CYP3A4 inhibition (CYP3A4): weak CYP3A4 inhibitors
